Source: patent US20230354862A1, “ANTI-DIABETIC COMPOSITION CONTAINING BEET MIXTURE AS ACTIVE INGREDIENT” (BAE RYEO INNOVATION CO., LTD., priority 2021, published 2023)

Assays:
[1] = test system: SD rats; assay: Oral starch tolerance test (OATT); type: in vivo, rat
Method: As an experimental food, normal mouse feed (Purina Lab Rodent Chow #38057, Purina Co., Seoul Korea) was fed, and during the acclimatization period, filtered water was replaced with fresh one and the animals were allowed access ad libitum to water. During the breeding period, the animals were kept under the following conditions: temperature, 23±1° C.; humidity, 50±5%; noise, 60 phone or less; lighting time, 08:00 to 20:00 (12 hours a day); illumination, 150 to 300 Lux; 10 to 12 ventilations per hour. This experiment was conducted in compliance with the Animal Experimental Ethics Regulations. After completion of the acclimatization period, the experimental animals were divided into groups using the randomized block design based on fasting blood glucose that the mean values between the groups were uniform, and then the animals were marked using an ear punch. […] Changes in blood glucose levels in each group were analyzed based on the measured blood glucose levels. All experimental results were calculated as mean±standard error (mean±S.E.) using the statistical program (SPSS ver. 12.0, SPSS Inc., Chicago, IL, USA). […]

[2] = test system: SD rats; assay: Oral sucrose tolerance test (OSTT); type: in vivo, rat; details: 3 mg/kg acarbose (A 3)
Method: As an experimental food, normal mouse feed (Purina Lab Rodent Chow #38057, Purina Co., Seoul Korea) was fed, and during the acclimatization period, filtered water was replaced with fresh one and the animals were allowed access ad libitum to water. During the breeding period, the animals were kept under the following conditions: temperature, 23±1° C.; humidity, 50±5%; noise, 60 phone or less; lighting time, 08:00 to 20:00 (12 hours a day); illumination, 150 to 300 Lux; 10 to 12 ventilations per hour. This experiment was conducted in compliance with the Animal Experimental Ethics Regulations. After completion of the acclimatization period, the experimental animals were divided into groups using the randomized block design based on fasting blood glucose that the mean values between the groups were uniform, and then the animals were marked using an ear punch. The animals were divided into a normal group, a control group, a group to which 10 mg/kg of the beet mixture was administered (10 mg/kg Beta vulgaris mixture group), a group to which 30 mg/kg of the beet mixture was administered (30 mg/kg Beta vulgaris mixture group), a group to which 30 mg/kg of the beet mixture was administered (30 mg/kg Beta vulgaris mixture group), and a positive control group (3 mg/kg acarbose), each consisting of 8 animals. Using these groups, an oral sucrose tolerance test (OSTT) and an oral starch tolerance test (OATT) were conducted. […] Changes in blood glucose levels in each group were analyzed based on the measured blood glucose levels. All experimental results were calculated as mean±standard error (mean±S.E.) using the statistical program (SPSS ver. 12.0, SPSS Inc., Chicago, IL, USA). Statistically significant differences between experimental groups were tested using a one-way analysis of variance test (ANOVA), and in case of significance (p<0.05), a post-test was performed with the Duncan's multiple range test.

[3] = test system: db/db mice; assay: Oral glucose tolerance test in type 2 diabetes model; type: in vivo, mouse; details: 300 mg/kg metformin (Met 300)
From the text: (§1) As experimental animals, 5-week-old specific-pathogen free (SPF) male db/db mice were obtained from Central Laboratory Animal, Inc. (Seoul, Korea), and acclimated for 1 week before use in the experiment. As an experimental food, normal mouse feed (Purina Lab Rodent Chow #38057, Purina Co., Seoul Korea) was fed, and during the acclimatization period, filtered water was replaced with fresh one daily and the animals were allowed access ad libitum to water. During the breeding period, the animals were kept under the following conditions: temperature, 23±1° C.; humidity, 50±5%; noise, 60 phone or less; lighting time, 08:00 to 20:00 (12 hours a day); illumination, 150 to 300 Lux; 10 to 12 ventilations per hour. This experiment was conducted in compliance with the Animal Experimental Ethics Regulations.
(§2) After completion of the acclimatization period, the experimental animals were divided into groups using the randomized block design based on fasting blood glucose that the mean values between the groups were uniform, and then the animals were marked using an ear punch. […]
(§3) All experimental results were calculated as mean±standard error (S.E.) using SPSS ver. […]

[4] = test system: db/db mice; assay: Glycated hemoglobin (HbA1c) analysis in type 2 diabetes model; type: in vivo, mouse; details: after 3 weeks, 300 mg/kg metformin (Met 300)
From the text: as §1, §2, §3

[5] = test system: db/db mice; assay: Tissue weight analysis in type 2 diabetes model; type: in vivo, mouse; details: 300 mg/kg metformin (Met 300)
From the text: as §1
(§4) After completion of the acclimatization period, the experimental animals were divided into groups using the randomized block design based on fasting blood glucose that the mean values between the groups were uniform, and then the animals were marked using an ear punch. The animals were divided into a normal group, a control group, a group to which 10 mg/kg of the beet mixture was administered (10 mg/kg Beta vulgaris mixture group), a group to which 30 mg/kg of the beet mixture was administered (30 mg/kg Beta vulgaris mixture group), a group to which 30 mg/kg of the beet mixture was administered (30 mg/kg Beta vulgaris mixture group), and a positive control group (300 mg/kg metformin), each consisting of 8 animals. Each sample was orally administered 5 times a week for 3 weeks.
(§5) Weekly body weight and blood sugar level were all measured once a week at a certain time, and food intake and water intake were measured the next day after feeding certain amounts of food and water once a week. Weekly blood glucose levels were measured using blood collected from the caudal veins using a blood glucose meter (AutoCheck, Diatech Korea) at a certain time every week. For autopsy, blood was collected from the abdominal vena cava after inhalation anesthesia and used for blood analysis, and the liver, epididymal fat, pancreas, and kidney were harvested and weighed.
(§6) All experimental results were calculated as mean±standard error (S.E.) using SPSS ver. 12.0 (SPSS Inc., Chicago, IL, USA). Statistically significant differences between experimental groups were tested using a one-way analysis of variance test (ANOVA), and in case of significance (p<0.05), a post-test was performed with the Duncan's multiple range test.

[6] = test system: db/db mice; assay: Hematological (serum) analysis in type 2 diabetes model; type: in vivo, mouse; details: 300 mg/kg metformin (Met 300)
From the text: as §1, §4, §5
Blood was collected from the abdominal vena cava, placed in conical tubes, coagulated for 30 minutes at room temperature, and then centrifuged at 3,000 rpm for 10 minutes. Analysis of blood fructosamine, TC, TG, LDL-C, HDL-C, and VLDL levels were performed by KPNT (Cheongju, Korea), and insulin analysis was performed using an ELISA kit (Crystalchem, USA). HOMA-IR and HOMA-beta levels were calculated based on the blood analysis results.
as §6

[7] = test system: db/db mice; assay: Weekly biomarker analysis in type 2 diabetes model (body weight, food and water intake, blood glucose); type: in vivo, mouse; details: 300 mg/kg metformin (Met 300)
From the text: as §1, §4
as §5, with “For autopsy, blood was collected from the abdominal vena cava after inhalation anesthesia and used for blood analysis, and the liver, epididymal fat, pancreas, and kidney were harvested and weighed.” left out
as §3

[8] = test system: db/db mice; assay: Histological analysis of β-cell area (insulin immunostaining of pancreas); type: in vivo, mouse; details: 300 mg/kg metformin (Met 300)
From the text: as §1, with “Regulations. […]” for “Regulations.”
Analysis of the islets of Langerhans in the pancreatic tissue was performed by immunostaining. […] After washing twice with TBST buffer for 5 min, samples were reacted with 2.5% normal goat serum for blocking (Vector, USA) for 20 min, and then the blocking reagent and working insulin antibody (Cell Signaling, MA, USA) solution (2 to 10 μl of antibody to 1 ml of Ready-To-Use 2.5% normal goat serum for blocking) was reacted at 4° C. overnight. […]
as §3

SMILES: C[C@H]1O[C@H](O[C@H]2[C@H](O)[C@@H](O)[C@@H](O[C@H]3[C@H](O)[C@@H](O)C(O)O[C@@H]3CO)O[C@@H]2CO)[C@H](O)[C@@H](O)[C@@H]1N[C@H]1C=C(CO)[C@@H](O)[C@H](O)[C@H]1O (stereo partly drawn) [acarbose]
- change in blood glucose after starch administration (AUC) ([1]; 3 mg/kg acarbose (A 3)): 197.32 ± 7.12 mg/dL
- blood glucose level at 30 min after starch administration ([1]; 3 mg/kg acarbose oral (A 3)): 90.63 ± 3.80 mg/dL
- blood glucose level at 30 min after sucrose administration [2]: 95.88 ± 3.20 mg/dL
- blood glucose level at 120 min after sucrose administration [2]: 80.38 ± 1.76 mg/dL
- change in blood glucose level after sucrose administration (AUC) [2]: 197.32 ± 7.12 mg/dL

SMILES: CN(C)C(=N)N=C(N)N [metformin]
- blood glucose level at 30 min after oral glucose administration [3]: 382.0 ± 31.0 mg/dL
- change in blood glucose level after glucose administration (OGTT AUC) [3]: 778.06 ± 262.53 mg/dL
- HbA1c level [4]: 6.79±0.29%
- kidney tissue weight ([5]; after 3 weeks): 0.303 ± 0.008 g
- liver tissue weight ([5]; after 3 weeks): 1.97 ± 0.06 g
- epididymal fat tissue weight ([5]; at autopsy): 1.761 ± 0.038 g
- pancreatic tissue weight ([5]; at autopsy): 0.116 ± 0.005 g
- HOMA-IR level (insulin resistance) [6]: 0.975±0.199
- HOMA-β level (insulin secretion ability) [6]: 6.863±0.404
- serum HDL cholesterol level [6]: 105.09 ± 2.63 mg/dL
- serum fructosamine level [6]: 319.13 ± 10.89 µmol/L
- serum total cholesterol level [6]: 126.50 ± 2.24 mg/dL
- LDL cholesterol level ([6]; after 3 weeks): 12.94 ± 0.84 mg/dL
- serum insulin level ([6]; after 3 weeks): 12.94 ± 0.84 ng/mL
- serum triglyceride level ([6]; after 3 weeks): 236.13 ± 11.87 mg/dL
- blood glucose level at 1 week after sample administration [7]: 167.0 ± 19.1 mg/dL
- blood glucose level at 3 weeks after sample administration [7]: 238.8 ± 21.9 mg/dL
- body weight at week 3 [7]: 34.04 ± 0.35 g
- β-cell area [8]: 83242.23±11320.56 μm^2
